How the values were obtained:
XBP-luciferase reporter = XBP-luciferase reporter assay under Tm or hypoxia; assay type: cell-based, human
Description: (§1) HT1080 cells stably expressing the XBP-luciferase construct were grown in 60 mm dishes to 60-70% confluency. Following hypoxia treatment, cells were washed twice with PBS, lysed in 400 μl 1× reporter lysis buffer (RLB) (Promega, Madison Wis.) for 30 min at 24° C. Lysates (100 μl) were mixed with an equal volume of luciferase substrate (Promega), and assayed using a luminometer. For 5×-UPRE-luciferase reporter assays, cells were co-transfected with the appropriate reporter plasmid and a control plasmid (pSV40-beta-gal) using Lipofectamine 2000 (Invitrogen, San Diego, Calif.). Twenty-four hours after transfection, fresh media was added, and cells were treated with Tm or shifted to hypoxia. After treatment, cells were lysed in 1× RLB and analyzed for luciferase activity as described above. Beta-galactosidase activity was determined using the beta-galactosidase enzyme assay system (Promega).
(§2) A. XBP-luciferase reporter construct. […] After 24 hours, luciferase activity was analyzed in an automated plate reader. For each cell line, values are expressed as the percent inhibition of the median for Tm/Tg-treated wells, corrected for background. […] Values are expressed as the fold increases over uninduced levels. […] Cells were harvested, lysed, and analyzed by immunoblotting with antisera specific for HIF-1α (top), XBP-1s (middle) or actin (bottom). […]

[1] = tested on: HT1080 tet-off Flag-XBP-1s cells; experiment: Colony formation of HT1080 tet-off Flag-XBP-1s cells under hypoxia; assay type: cell-based, human; conditions: 2.5 μM, no dox, hypoxia 48 hours
[2] = tested on: PANC1 pancreatic adenocarcinoma cells; experiment: PANC1 tumor growth in nude mice; assay type: in vivo, mouse; conditions: 60 mg/kg bolus every 48 hours, 5 doses, 5-7 tumors per group
Description: Dose: 60 mg/kg ip bolus injection every 48 hours. 5 total doses. 5-7 tumors per group. PANC1 pancreatic adenocarcinoma cell line.
PANC1 pancreatic adenocarcinoma cells were implanted subcutaneously into nude mice. Mice were then given a bolus injection of one of the inventive irestatins (1401, 9337, 3611 or 9389) at a dose of 60 mg/kg every 48 hours for a total of 5 doses, with 5-7 tumors being treated per group.

P58^IPK and DER-1 = experiment: Northern blot analysis of XBP-1s transcription targets; assay type: cell-based, human; conditions: 2 μM, Tm or hypoxia 24 hours
Description: Cells were cultured in 10 cm plates, harvested, and total RNA recovered with Trizol (Invitrogen, San Diego, Calif.). Total RNA (10 μg) was resolved on a 1% agarose-formaldehyde gel. ^32P-labeled probes were prepared using the Rediprime II random-prime labeling kit (GE-Amersham, Buckinghamshire, UK). The primers used to PCR amplify probes are as follows. P58^IPK: 5′[…] 3′ (SEQ ID NO: 4); 5′ […] 3′ (SEQ ID NO: 5). DER-1: 5′ […] 3′ (SEQ ID NO: 6); 5′[…] 3′ (SEQ ID NO: 7). Blots were incubated with probe overnight, washed three times in 2×SSC/0.2% SDS, dried, and exposed to a phosphorimager screen overnight. Images were analyzed using ImageQuant software (Molecular Dynamics).
A. XBP-luciferase reporter construct. Firefly luciferase was inserted downstream of the IRE1α splice site in human XBP-1 to enable the conditional translation of luciferase under ER stress in an IRE1α-dependent manner. […] After 24 hours, luciferase activity was analyzed in an automated plate reader. For each cell line, values are expressed as the percent inhibition of the median for Tm/Tg-treated wells, corrected for background. […] Values are expressed as the fold increases over uninduced levels. […] Cells were harvested, lysed, and analyzed by immunoblotting with antisera specific for HIF-1α (top), XBP-1s (middle) or actin (bottom). […] Total RNA was analyzed by Northern blotting using radiolabeled probes specific for P58^IPK or DER-1. […]

XBP-1s (5X-UPRE) = experiment: 5X-UPRE luciferase reporter assay; assay type: cell-based, human
Description: as §1, §2

Cc1csc(NC(=O)CSc2nc3c(c(C(F)(F)F)c2C#N)CCC3)n1 [Compound 9389]
activation of the XBP-luciferase reporter under hypoxia (XBP-luciferase reporter; 1 μM, hypoxia 24 or 48 hours): robustly inhibited this response | inhibition at 1 µM (XBP-luciferase reporter; Homo sapiens, Tm 24 hours, read-out: inhibition of Tm-mediated activation of the XBP-luciferase reporter): > 90% | survival of hypoxic cells expressing Flag-XBP-1s [1]: minimal effect | tumor growth [2]: significant tumor growth was observed in untreated mice, but not in mice treated with the irestatins | induction of P58^IPK and DER-1 expression (P58^IPK and DER-1): fully inhibited this response | diminution of 5X-UPRE luciferase response under hypoxia (XBP-1s (5X-UPRE); 48 hours of hypoxia, vehicle 170-fold): more than 90% | 5X-UPRE luciferase induction over untreated cells (XBP-1s (5X-UPRE); Tm plus irestatin, Tm alone ~12-fold): < 4 fold

Reference: US20090291857A1, “METHODS TO IDENTIFY INHIBITORS OF THE UNFOLDED PROTEIN RESPONSE” (THE BOARD OF TRUSTEES OF THE LELAND STANFORD JUNIOR …, priority 2006, published 2009)
